Tests used:
Format in all cases: cell-based
MES-SA/Dx5 = assay: In vitro efficacy of free drug silvestrol compounds, MES-SA/Dx5; conditions: Homo sapiens; MES-SA/Dx5 cell line
Excerpt: (§1) The CellTiter-Glo® Luminescent Cell Viability Assay is a commercially available (Promega Corp., Madison, Wis.), homogeneous assay method based on the recombinant expression of Coleoptera luciferase (U.S. Pat. Nos. 5,583,024; 5,674,713; 5,700,670). This cell proliferation assay determines the number of viable cells in culture based on quantitation of the ATP present, an indicator of metabolically active cells (Crouch et al (1993) J. Immunol. Meth. 160:81-88; U.S. Pat. No. 6,602,677). The CellTiter-Glo® Assay was conducted in 96 well format, making it amenable to automated high-throughput screening (HTS) (Cree et al (1995) AntiCancer Drugs 6:398-404). The homogeneous assay procedure involves adding the single reagent (CellTiter-Glo® Reagent) directly to cells cultured in serum-supplemented medium. […]
(§2) Inhibition of cell proliferation in vitro may be assayed using the CellTiter-Glo™ Luminescent Cell Viability Assay, an embodiment of which is detailed as Example 6. Such assay determines the number of viable cells in culture based on quantitation of ATP present, which is an indication of metabolically active cells (Crouch et al. (1993) J. Immunol. Meth. 160:81-88; U.S. Pat. No. 6,602,677). […] Data can be recorded by luminometer or CCD camera imaging device. The luminescence output is expressed as relative light units (RLU).

T-47D = assay: In vitro efficacy of free drug silvestrol compounds, T-47D; conditions: Homo sapiens, T47D; T-47D cell line
Excerpt: as §1, §2

BJAB = assay: In vitro efficacy of free drug silvestrol compounds, BJAB; conditions: Homo sapiens; BJAB cell line
Excerpt: as §1, §2

KPL-4 cells = assay: In vitro cell viability (CellTiter-Glo), KPL-4 cells; conditions: Homo sapiens, KPL4; KPL-4 cell line; read-out: IC50 (nM) free drug
Experimental: (§3) Generally, the cytotoxic or cytostatic activity of an antibody-drug conjugate (ADC) is measured by: exposing mammalian cells having receptor proteins, e.g. HER2, to the antibody of the ADC in a cell culture medium; culturing the cells for a period from about 6 hours to about 5 days; and measuring cell viability. Cell-based in vitro assays were used to measure viability (proliferation), cytotoxicity, and induction of apoptosis (caspase activation) of the ADC of the invention.
(§4) The CellTiter-Glo® Luminescent Cell Viability Assay is a commercially available (Promega Corp., Madison, Wis.), homogeneous assay method based on the recombinant expression of Coleoptera luciferase (U.S. Pat. Nos. 5,583,024; 5,674,713; 5,700,670). This cell proliferation assay determines the number of viable cells in culture based on quantitation of the ATP present, an indicator of metabolically active cells (Crouch et al (1993) J. Immunol. Meth. 160:81-88; U.S. Pat. No. 6,602,677). […]
(§5) Inhibition of cell proliferation in vitro may be assayed using the CellTiter-Glo™ Luminescent Cell Viability Assay, an embodiment of which is detailed as Example 6. Such assay determines the number of viable cells in culture based on quantitation of ATP present, which is an indication of metabolically active cells (Crouch et al. (1993) J. Immunol. Meth. 160:81-88; U.S. Pat. No. 6,602,677). […]

HCC1569 X2 = assay: In vitro efficacy of free drug silvestrol compounds, HCC1569 X2; conditions: Homo sapiens; HCC1569 X2 cell line
Excerpt: as §1
as §2, with “(RLU). […]” for “(RLU).”

HCC1937 = assay: In vitro efficacy of free drug silvestrol compounds, HCC1937; conditions: Homo sapiens; HCC1937 cell line
Excerpt: as §1, §2

MES-SA = assay: In vitro efficacy of free drug silvestrol compounds, MES-SA; conditions: Homo sapiens; MES-SA cell line
Excerpt: as §1, §2

NCI-H1781 = assay: In vitro efficacy of free drug silvestrol compounds, NCI-H1781; conditions: NCI-H1781 cell line
Excerpt: as §1, §2

SK-BR-3 cells = assay: In vitro cell viability (CellTiter-Glo), SK-BR-3 cells; conditions: Homo sapiens, read-out: IC50 free drug
Experimental: as §3, §4, §5

cell lines of Table 7 = assay: In vitro efficacy of free drug silvestrol compounds, summary over cell lines of Table 7; conditions: summary of Table 7
Excerpt: The CellTiter-Glo® Luminescent Cell Viability Assay is a commercially available (Promega Corp., Madison, Wis.), homogeneous assay method based on the recombinant expression of Coleoptera luciferase (U.S. Pat. Nos. 5,583,024; 5,674,713; 5,700,670). This cell proliferation assay determines the number of viable cells in culture based on quantitation of the ATP present, an indicator of metabolically active cells (Crouch et al (1993) J. Immunol. Meth. 160:81-88; U.S. Pat. No. 6,602,677). The CellTiter-Glo® Assay was conducted in 96 well format, making it amenable to automated high-throughput screening (HTS) (Cree et al (1995) AntiCancer Drugs 6:398-404). The homogeneous assay procedure involves adding the single reagent (CellTiter-Glo® Reagent) directly to cells cultured in serum-supplemented medium. Cell washing, removal of medium and multiple pipetting steps are not required. The system detects as few as 15 cells/well in a 384-well format in 10 minutes after adding reagent and mixing. The cells may be treated continuously with ADC, or they may be treated and separated from ADC.
Inhibition of cell proliferation in vitro may be assayed using the CellTiter-Glo™ Luminescent Cell Viability Assay, an embodiment of which is detailed as Example 6. Such assay determines the number of viable cells in culture based on quantitation of ATP present, which is an indication of metabolically active cells (Crouch et al. (1993) J. Immunol. Meth. 160:81-88; U.S. Pat. No. 6,602,677). The assay may be conducted in 96- or 384-well format, making it amenable to automated high-throughput screening (HTS). See Cree et al. (1995) AntiCancer Drugs 6:398-404. The assay procedure involves adding a single reagent (CellTiter-Glo® Reagent) directly to cultured cells. […] The luminescent signal is proportional to the amount of ATP present, which is directly proportional to the number of viable cells present in culture. Data can be recorded by luminometer or CCD camera imaging device. The luminescence output is expressed as relative light units (RLU). […]

SW 900 = assay: In vitro efficacy of free drug silvestrol compounds, SW 900; conditions: Homo sapiens, SW900; SW 900 cell line
Excerpt: as §1, §2

| SMILES | IC50 (MES-SA/Dx5) [nM] | IC50 (T-47D) [nM] | IC50 (BJAB) [nM] | IC50 (KPL-4 cells) [nM] | IC50 (HCC1569 X2) [nM] | IC50 (HCC1937) [nM] | IC50 (MES-SA) [nM] | IC50 (NCI-H1781) [nM] | IC50 (SK-BR-3 cells) [nM] | IC50s of free drug, in words (cell lines of Table 7) | activity of free drug in vitro (cell lines of Table 7) | IC50 (SW 900) [nM] |
| --- | --- | --- | --- | --- | --- | --- | --- | --- | --- | --- | --- | --- |
| COC(=O)[C@H]1[C@@H](O)[C@@]2(O)c3c(OC)cc(O[C@@H]4O[C@@H](CCN)CO[C@H]4OC)cc3O[C@@]2(c2ccc(OC)cc2)[C@@H]1c1ccccc1 [amino silvestrol analog, (1R,2R,3S,3aR,8bS)-methyl 6-(((2S,3R,6S)-6-(2-aminoethyl)-3-methoxy-1,4-dioxan-2-yl)oxy)-1,8b-dihydroxy-8-methoxy-3a-(4-methoxyphenyl)-3-phenyl-2,3,3a,8b-tetrahydro-1H-cyclopenta[b]benzofuran-2-carboxylate] | > 100 | 1 | 0.81 | 1.2 | 1.3 | 0.66 | 1.1 | 1 | 1.6 | pM or low nM | active | 2.9 |
| COc1ccc([C@@]23Oc4cc(O[C@@H]5O[C@@H]([C@H](O)CO)CO[C@H]5OC)cc(OC)c4[C@]2(O)[C@H](O)[C@H](C(=O)NCCN)[C@H]3c2ccccc2)cc1 [silvestrol amine, (1R,2R,3S,3aR,8bS)-N-(2-aminoethyl)-6-(((2S,3R,6R)-6-((R)-1,2-dihydroxyethyl)-3-methoxy-1,4-dioxan-2-yl)oxy)-1,8b-dihydroxy-8-methoxy-3a-(4-methoxyphenyl)-3-phenyl-2,3,3a,8b-tetrahydro-1H-cyclopenta[b]benzofuran-2-carboxamide] | > 200 | > 200 | > 200 | > 200 | > 200 | > 200 | > 100 | > 200 | – | – | inactive | > 200 |

Source: US11648315B2, “Silvestrol antibody-drug conjugates and methods of use” (Genentech, Inc., priority 2016, dated 2023)
